According to paper PMC8962514 (ACS infectious diseases, 2022):
In brackets after ≈: the same amount, converted by molar mass. Non-standard residues stand in square brackets, D forms with d. Residues, ends and D or L forms follow the SMILES beside them. Nspe = C[C@H](NCC(=O)O)c1ccccc1; NDecylGly = CCCCCCCCCCNCC(=O)O; Nlys = NCCCCNCC(=O)O

Tests used:
[1] = test system: K. pneumoniae KPLN649; format: cell-based, Klebsiella pneumoniae; settings: KPLN649, 16 h
[2] = test system: S. aureus pre-formed biofilm; experiment: Minimal biofilm eradication; format: cell-based, Staphylococcus aureus; settings: 12.5 μg/ml peptoid (Figure 4 legend; 6.25 μg/mL), relative to PBS, n = 3
[3] = test system: A. baumannii pre-formed biofilm; experiment: Minimal biofilm eradication; format: cell-based, Acinetobacter baumannii; settings: 6.25 μg/ml peptoid, relative to PBS, n = 3
[4] = test system: S. aureus biofilm; experiment: Minimal biofilm inhibition; format: cell-based, Staphylococcus aureus; settings: 1.56 μg/mL peptoid, relative to PBS, n = 3
[5] = test system: S. aureus USA300 LAC; format: cell-based, Staphylococcus aureus; settings: USA300, 16 h
[6] = test system: K. pneumoniae pre-formed biofilm; experiment: Minimal biofilm eradication; format: cell-based, Klebsiella pneumoniae; settings: 12.5 μg/ml peptoid (Figure 4 legend; 6.25 μg/mL), relative to PBS, n = 3
[7] = test system: P. aeruginosa LESB58; format: cell-based, Pseudomonas aeruginosa; settings: LESB58, 16 h
[8] = test system: E. faecium #2-1; format: cell-based, Enterococcus faecium; settings: #2-1, 16 h
[9] = In vivo toxicity / maximum tolerated dose; settings: mice, Table S3
[10] = test system: P. aeruginosa LESB58 biofilm; experiment: Biofilm eradication under host-mimicking conditions, monomicrobial; format: cell-based, Pseudomonas aeruginosa; settings: 31.25 μg/mL peptoid, DMEM-FBS-G, n = 3
[11] = test system: P. aeruginosa biofilm; experiment: Minimal biofilm inhibition; format: cell-based, Pseudomonas aeruginosa; settings: 1.56 μg/mL peptoid, relative to PBS, n = 3
[12] = test system: K. pneumoniae biofilm; experiment: Minimal biofilm inhibition; format: cell-based, Klebsiella pneumoniae; settings: 1.56 μg/mL peptoid, relative to PBS, n = 3
[13] = test system: E. cloacae biofilm; experiment: Minimal biofilm inhibition; format: cell-based, Enterobacter cloacae; settings: 1.56 μg/mL peptoid, relative to PBS, n = 3
[14] = test system: A. baumannii AB5075; format: cell-based, Acinetobacter baumannii; settings: AB5075, 16 h
[15] = Self-assembly in aqueous solution by small angle X-ray scattering; format: physicochemical
[16] = test system: E. cloacae 218R1; format: cell-based, Enterobacter cloacae; settings: 218R1, 16 h
[17] = test system: S. aureus USA300 LAC; experiment: Subcutaneous abscess infection model; format: in vivo, mice; settings: 1.25 mg/kg for TM8, vs PBS

CCCCCCCCCCNCC(=O)N(CCCCN)CC(=O)N(CC(=O)N(CC(=O)N(CCCCN)CC(=O)N(CC(=O)N(CC(N)=O)[C@@H](C)c1ccccc1)[C@@H](C)c1ccccc1)[C@@H](C)c1ccccc1)[C@@H](C)c1ccccc1 [TM8] (H-[NDecylGly][Nlys][Nspe][Nspe][Nlys][Nspe][Nspe]-NH2)
Minimum inhibitory concentration (MIC) [1]: 12.5 µg/mL (≈ 11.2 µM)
Reduction of biomass of pre-formed biofilm (CV staining) [2]: impacted
Reduction of biofilm metabolic activity (TTC reduction) [3]: metabolic activity was reduced
Inhibition of biofilm formation (CV staining) [4]: inhibited biofilm formation
Minimum inhibitory concentration (MIC) [5]: 3.13 µg/mL (≈ 2.81 µM)
Reduction of biomass of pre-formed biofilm (CV staining) [6]: impacted
Minimum inhibitory concentration (MIC) [7]: 6.25 µg/mL (≈ 5.6 µM)
Minimum inhibitory concentration (MIC) [8]: 0.78 µg/mL (≈ 0.699 µM)
Maximum tolerated dose [9]: 1.25 mg/kg
Reduction of P. aeruginosa bacterial numbers in biofilm (CFU) [10]: 1,000 fold
Inhibition of biofilm formation (CV staining) [11]: inhibited biofilm formation
Inhibition of biofilm formation (CV staining) [12]: inhibited biofilm formation
Inhibition of biofilm formation (CV staining) [13]: inhibited biofilm formation
Minimum inhibitory concentration (MIC) [14]: 3.13 µg/mL (≈ 2.81 µM)
Eccentricity (ε) of ellipsoidal micelles ([15]; SAXS model analysis): 1.9
Rcore of ellipsoidal micelles ([15]; SAXS model analysis): 10 Å
dR (shell) of ellipsoidal micelles ([15]; SAXS model analysis): 9 Å
Aggregation number of ellipsoidal micellar assemblies ([15]; SAXS, on average): ~103 peptoids
Fraction of larger aggregates ([15]; SAXS, upturn at low Q, 4mM, 20°C): ~ 0.08%
Self-assembled structure (SAXS best fit) ([15]; aqueous solution, peptoids 4mM, 20°C, theoretical model analysis): ellipsoidal micellar assemblies
Minimum inhibitory concentration (MIC) [16]: 12.5 µg/mL (≈ 11.2 µM)
Effect on S. aureus abscess size and bacterial burden, in words [17]: insignificantly reduced
